Measurements taken from ChEMBL document CHEMBL1142855, “Hydroxylated N-alkyl-4-piperidinyl-2,3-diarylpyrrole derivatives as potent broad-spectrum anticoccidial agents” (Bioorg Med Chem Lett, 2005).

Legend:
Eimeria tenella [1] = assay: Anticoccidial activity as percentage reduction in oocyst production in birds infected with Eimeria tenella after 100 ppm dose; assay type: functional
[2] = biological target: cGMP-dependent protein kinase (Eimeria tenella, UniProt Q8MMZ8); assay: Inhibitory activity against cGMP-dependent protein kinase from Eimeria tenella
Eimeria acervulina = assay: Anticoccidial activity as percentage reduction in oocyst production in birds infected with Eimeria acervulina after 100 ppm dose; assay type: functional
Eimeria tenella [3] = assay: Anticoccidial activity as percentage reduction in oocyst production in birds infected with Eimeria tenella after 100 ppm dose; Range is 50-79%; assay type: functional

Sequence of cGMP-dependent protein kinase (Q8MMZ8 whole entry): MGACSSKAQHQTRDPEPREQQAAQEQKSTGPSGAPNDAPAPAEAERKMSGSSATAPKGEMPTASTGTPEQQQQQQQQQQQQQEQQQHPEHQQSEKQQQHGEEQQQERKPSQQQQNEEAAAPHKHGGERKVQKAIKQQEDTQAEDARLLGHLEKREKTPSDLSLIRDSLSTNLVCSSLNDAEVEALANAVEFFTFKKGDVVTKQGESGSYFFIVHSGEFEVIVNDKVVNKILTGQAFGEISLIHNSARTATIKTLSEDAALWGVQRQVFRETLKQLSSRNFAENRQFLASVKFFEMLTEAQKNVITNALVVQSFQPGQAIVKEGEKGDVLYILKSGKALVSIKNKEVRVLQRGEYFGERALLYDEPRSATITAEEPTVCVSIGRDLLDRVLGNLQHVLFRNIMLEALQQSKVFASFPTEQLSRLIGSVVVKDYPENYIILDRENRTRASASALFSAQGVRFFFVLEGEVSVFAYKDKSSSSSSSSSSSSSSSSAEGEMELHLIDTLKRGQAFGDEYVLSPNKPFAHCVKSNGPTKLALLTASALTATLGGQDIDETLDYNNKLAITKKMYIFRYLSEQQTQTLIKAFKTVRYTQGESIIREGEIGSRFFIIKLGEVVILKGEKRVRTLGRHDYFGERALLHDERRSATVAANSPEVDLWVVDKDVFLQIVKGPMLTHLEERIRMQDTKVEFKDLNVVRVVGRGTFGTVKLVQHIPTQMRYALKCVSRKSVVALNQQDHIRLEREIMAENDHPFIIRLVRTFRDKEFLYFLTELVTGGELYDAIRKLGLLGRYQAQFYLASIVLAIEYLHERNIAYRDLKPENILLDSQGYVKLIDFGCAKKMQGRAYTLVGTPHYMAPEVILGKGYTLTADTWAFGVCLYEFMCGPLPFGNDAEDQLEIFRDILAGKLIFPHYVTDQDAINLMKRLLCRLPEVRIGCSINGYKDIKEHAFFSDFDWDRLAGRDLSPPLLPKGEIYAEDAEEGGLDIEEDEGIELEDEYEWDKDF

SMILES	IC50 [2] [nM]	Anticoccidial Activity (Eimeria tenella [1]) [%]	Anticoccidial Activity (Eimeria acervulina) [%]	Anticoccidial Activity (Eimeria tenella [3]) [%]
CC(=O)OCCN1CCC(c2cc(-c3ccncc3)c(-c3ccc(F)cc3)[nH]2)CC1	2.08	<50	<50	–
CC(O)[C@H](C)N1CCC(c2cc(-c3ccncc3)c(-c3ccc(F)cc3)[nH]2)CC1 (stereo partly specified)	0.86	>80	>80	–
CC(C)(C)OCC(O)CN1CCC(c2cc(-c3ccncc3)c(-c3ccc(F)cc3)[nH]2)CC1 (stereo unspecified)	0.98	<50	<50	–
OCC(O)CN1CCC(c2cc(-c3ccncc3)c(-c3ccc(F)cc3)[nH]2)CC1 (stereo in doubt; 5e)	1.27	–	–	–
OCC(O)CN1CCC(c2cc(-c3ccncc3)c(-c3ccc(F)cc3)[nH]2)CC1 (stereo in doubt; 5b)	0.71	–	>80	–
OCCN1CCC(c2cc(-c3ccncc3)c(-c3ccc(F)cc3)[nH]2)CC1	–	>80	>80	–
CC(O)[C@@H](C)N1CCC(c2cc(-c3ccncc3)c(-c3ccc(F)cc3)[nH]2)CC1 (mixture of isomers)	0.94	>80	>80	–
CC(C)OCC(O)CN1CCC(c2cc(-c3ccncc3)c(-c3ccc(F)cc3)[nH]2)CC1 (stereo unspecified)	0.69	<50	<50	–
OCCCCCN1CCC(c2cc(-c3ccncc3)c(-c3ccc(F)cc3)[nH]2)CC1	1.46	>80	>80	–
CCCN1CCC(c2cc(-c3ccncc3)c(-c3ccc(F)cc3)[nH]2)CC1	–	<50	<50	–
OCCCCN1CCC(c2cc(-c3ccncc3)c(-c3ccc(F)cc3)[nH]2)CC1	1.34	>80	>80	–
CC(=O)N1C[C@H](O)CC1CN1CCC(c2cc(-c3ccncc3)c(-c3ccc(F)cc3)[nH]2)CC1 (stereo partly specified)	2.2	–	–	–
CC(O)[C@H](CO)N1CCC(c2cc(-c3ccncc3)c(-c3ccc(F)cc3)[nH]2)CC1 (stereo partly specified)	0.82	>80	>80	–
OCCCN1CCC(c2cc(-c3ccncc3)c(-c3ccc(F)cc3)[nH]2)CC1	–	–	>80	79
CC(O)[C@@H](CO)N1CCC(c2cc(-c3ccncc3)c(-c3ccc(F)cc3)[nH]2)CC1 (stereo partly specified)	1.01	>80	>80	–
C[C@@H](O)CN1CCC(c2cc(-c3ccncc3)c(-c3ccc(F)cc3)[nH]2)CC1	1.2	>80	>80	–
CCCCCCC(O)CN1CCC(c2cc(-c3ccncc3)c(-c3ccc(F)cc3)[nH]2)CC1 (stereo unspecified)	1.01	<50	<50	–
OC(COCc1ccco1)CN1CCC(c2cc(-c3ccncc3)c(-c3ccc(F)cc3)[nH]2)CC1 (stereo unspecified)	0.82	<50	<50	–
CCC(O)CN1CCC(c2cc(-c3ccncc3)c(-c3ccc(F)cc3)[nH]2)CC1 (stereo unspecified)	0.71	>80	>80	–
OC(Cc1ccccc1)CN1CCC(c2cc(-c3ccncc3)c(-c3ccc(F)cc3)[nH]2)CC1 (stereo unspecified)	1.28	<50	>80	–
C=CCOCC(O)CN1CCC(c2cc(-c3ccncc3)c(-c3ccc(F)cc3)[nH]2)CC1 (stereo unspecified)	0.8	<50	<50	–

Now from value to compound, other results behind:

IC50 [2] [nM]	SMILES	Anticoccidial Activity (Eimeria tenella [1]) [%]	Anticoccidial Activity (Eimeria acervulina) [%]	Anticoccidial Activity (Eimeria tenella [3]) [%]
0.69	COC[C@H](O)CN1CCC(c2cc(-c3ccncc3)c(-c3ccc(F)cc3)[nH]2)CC1	>80	>80	–
0.16	O[C@H]1CNC(CN2CCC(c3cc(-c4ccncc4)c(-c4ccc(F)cc4)[nH]3)CC2)C1 (stereo partly specified)	–	–	–
0.4	CC(O)C(O)CN1CCC(c2cc(-c3ccncc3)c(-c3ccc(F)cc3)[nH]2)CC1 (stereo unspecified)	>80	>80	–
0.48	C[C@H](O)CN1CCC(c2cc(-c3ccncc3)c(-c3ccc(F)cc3)[nH]2)CC1	>80	>80	–
0.38	CCCC(O)CN1CCC(c2cc(-c3ccncc3)c(-c3ccc(F)cc3)[nH]2)CC1 (stereo unspecified)	<50	<50	–
0.66	OC(COc1ccccc1)CN1CCC(c2cc(-c3ccncc3)c(-c3ccc(F)cc3)[nH]2)CC1 (stereo unspecified)	<50	<50	–
0.47	OC(COCc1ccccc1)CN1CCC(c2cc(-c3ccncc3)c(-c3ccc(F)cc3)[nH]2)CC1 (stereo unspecified)	<50	<50	–
0.59	CCOCC(O)CN1CCC(c2cc(-c3ccncc3)c(-c3ccc(F)cc3)[nH]2)CC1 (stereo unspecified)	–	>80	79
0.41	CCCCC(O)CN1CCC(c2cc(-c3ccncc3)c(-c3ccc(F)cc3)[nH]2)CC1 (stereo unspecified)	<50	<50	–
0.51	OCC(O)CN1CCC(c2cc(-c3ccncc3)c(-c3ccc(F)cc3)[nH]2)CC1 (stereo in doubt; 5a)	>80	<50	–
0.56	COC[C@@H](O)CN1CCC(c2cc(-c3ccncc3)c(-c3ccc(F)cc3)[nH]2)CC1	>80	>80	–
